The values that follow come from publication PMC5464627, “Design of short peptides to block BTLA/HVEM interactions for promoting anticancer T-cell responses” (PLoS ONE, 2017).

For data set [1], the system named is 293T cells expressing BTLA, binding of rhHVEM-Fc. Nature of the data set: BTLA/HVEM interaction cell line assay (flow cytometry). Type of data set: cell-based. Particulars: 293T cells expressing human BTLA pre-incubated with 5 mg/mL for 1 h at 4°C, then rhHVEM-Fc 8 μg/ml and AF647 anti-human IgG; at least two experiments in triplicate. As to the method: 293T cells expressing BTLA (generous gift from Dr. C. Krummenacher, University of Pennsylvania, USA) were maintained in culture with RPMI 10% FCS supplemented with 0.2 mg/ml hygromycin B. 2x10^5 293T cells expressing BTLA were incubated with […] 8μg/ml in PBS 0.5% BSA for 30min at 4°C. Cells were then washed and incubated with goat anti-human Fc conjugated with AF647 for 20min at 4°C (Jackson ImmunoResearch, #109-606-170). Inhibition of HVEM-BTLA binding by different peptides was assessed by pre-incubating the cells with the different peptides at 5 mg/ml for 1h at 4°C. BTLA expression was controlled by anti-BTLA APC-conjugated antibody (Biolegend, #344510). Maximum inhibition of binding was determined by adding anti-BTLA7.1 antibody for 1h at 4°C at 2μg/ml before adding […]. Sample acquisition was performed on the Gallios Flow-Cytometer (Beckman Coulter) and data were analyzed using the FlowJo Software (TreeStar).  Fig 7 Blocking capacity of HVEM(23-39) fragment and free amino acids in a cellular assay. 293T cells expressing human BTLA were incubated with peptides or free amino acids (5mg/mL) prior labeling with […] AF647-conjugated anti-human IgG antibody (at least two experiments in triplicate).
On the technique in general: Flow cytometry measures light scatter and fluorescence of single cells or particles in a stream.

In data set [2] the test system is BTLA/HVEM interaction (BTLA-Fc coated, HVEM-Fc). Nature of the data set: Competitive BTLA/HVEM ELISA. It is filed as binding, human. The conditions noted are these: peptide or amino acid at 5, 1 and 0.1 mg/mL, 2 h at 37°C; relative to PBS (0%) and anti-BTLA 7.1 mAb (100%); at least two experiments in triplicate. The source says: (§1) The recombinant human BTLA protein used in affinity tests was purchased form Novoprotein (Company product code: C563). For ELISA, recombinant human BTLA-Fc, HVEM-Fc as well as anti-human BTLA (#7.1) blocking monoclonal antibody (mAb) and anti-human HVEM (#11.8) non-blocking mAb were described previously. Anti-HVEM mAb was biotinylated using the Biotin Labeling Kit-NH2 (Abnova, #KA0003), according manufacturer’s instruction.
96-well round bottom plates (medium binding; Greiner Bio-One) were coated with 400 ng/well of recombinant BTLA-Fc protein in PBS (50 μL/well) and incubated overnight at 4°C. Wells were washed twice with PBS-T (phosphate buffer saline with 0.1% Tween-20, pH 7.4) and blocked with 1% milk in PBS-T for 1 hour at 37°C. […] Maximum binding of HVEM to BTLA was controlled by adding 1% milk/PBS-T to negative control wells, whereas maximum inhibition was monitored by adding anti-BTLA 7.1 mAb (0.1 μg/well). Next, the plate was washed and incubated with recombinant HVEM-Fc protein at 400 ng/well in 1% milk/PBS-T for 1 hour at 37°C. Biotinylated anti-HVEM 11.8 antibody was then added (biotinylated preparation diluted at 1/10 000 in 1% milk/PBS-T) and incubated for 1 hour at 37°C. Streptavidin horseradish peroxidase (Dako) was finally added at a 1/8000 dilution in 1% BSA/PBS-T for 30 min at 37°C and detected with TMB (Biorad). The substrate reaction was blocked with 0.2 M H2SO4 and the absorbance was read at 450 nm and 630 nm. […] Statistical analysis of the results was performed using the one-way analysis of variance (one-way ANOVA).

Data set [3] is described as follows: Ellman's assay of free thiols. It is filed as physicochemical. Particulars: for Presence of free thiol groups: DTNB, 0.1 M sodium phosphate pH 7.4, 1 mM EDTA, absorbance at 412 nm. The method, then: The presence of free thiols was investigated using Ellman’s assay. DTNB (Sigma Aldrich) was first dissolved in reaction buffer (0.1 M sodium phosphate, pH 7.4, containing 1 mM EDTA) at a concentration of 4 mg/ml. Then peptides and recombinant BTLA-Fc, alone or mixed together (ratio 1:1) were added in DTNB reaction buffer. After 15 minutes of incubation, the SH content of protein samples was then assessed by the measurement of absorbance at 412 nm. For each sample, the absorbance value from the blank was subtracted.
In general terms: Ellman's reagent forms a yellow product with free thiols.

In data set [4] the test system is recombinant human BTLA protein. Nature of the data set: Microcolumn affinity test (BTLA-Sepharose, MALDI-MS of fractions). It is filed as binding. Particulars: for Interaction with BTLA immobilised in microcolumn (in words): BTLA-Sepharose microcolumn, 2 h at 25°C, pH 7.4, MS of elution fraction; for Elution [M+H]+1 (peptide signal in elution fraction = complex with BTLA formed; - = no signal): BTLA immobilised on NHS-Sepharose microcolumn, peptide incubated 2 h at 25°C in NH4HCO3 pH 7.4, eluted with 0.1% TFA, MALDI TOF/TOF. As to the method:
as §1
The immobilization of BTLA protein in a microcolumn was performed using the NHS-activated acid-coupled Sepharose 4B (Sigma Aldrich). BTLA protein was dissolved in 100 μl of coupling buffer (0.2 M NaHCO3, 0.5 M NaCl, pH 8.3) and was added to 0.06 g NHS-activated Sepharose in 100 μl of coupling buffer. The coupling reaction was performed for 1 hour in 25°C and the mixture was transferred into the microcolumn (MoBiTec, Goettingen, Germany). The microcolumn with immobilized protein was washed alternately with 10 ml of solution blocking buffer (0.1 M amino ethanol, 0.5 M NaCl, pH 8.3) and washing buffer (0.1 M CH3COONa, 0.5 M NaCl, pH 4). This step was repeated 4 times. The microcolumn was stored in PBS (pH 7.4).
Peptide affinity assay using NHS-activated Sepharose microcolumn was already described elsewhere. The peptides were added onto BTLA-Sepharose column equilibrated in ammonium hydrogen carbonate (NH4HCO3, pH 7.4) and incubated for 2 h at 25°C with gentle shaking. After this time the unbound peptide was removed and the column was washed with […] NH4HCO3 and 20 ml of H2O. Dissociation of the protein—peptide complex was performed using 0.1% TFA in H2O (2 x 0.5 ml) by 15 minutes. All fractions were analyzed using mass spectrometry (MALDI TOF/TOF™ 5800, AB SCIEX).
Fig 2 Microcolumn affinity test. Microcolumn affinity test results for binding of HVEM(23–39) fragment to BTLA: (A) supernatant, (B) last wash and (C) elution fractions. The MS measurements were done with the use of MALDI TOF/TOF 5800 (ABSciex, Germany). As a matrix α-cyano-4-hydroxycinnamic acid (CHCA, 10 mg/ml, Sigma-Aldrich) was used. The measurements were done in reflector positive mass mode with previous mass calibration with commercial standard peptide mixture (The Peptide Mass Standards Kit for Calibration of AB SCIEX MALDI-TOF™ Instruments).

The target of data set [5] is T1, recombinant human BTLA-Fc (human, UniProt Q7Z6A9 31-157).
T1 construct: B and T lymphocyte attenuator (BTLA), human, fused to Fc; also called rhBTLA-Fc
T1 sequence (looked up): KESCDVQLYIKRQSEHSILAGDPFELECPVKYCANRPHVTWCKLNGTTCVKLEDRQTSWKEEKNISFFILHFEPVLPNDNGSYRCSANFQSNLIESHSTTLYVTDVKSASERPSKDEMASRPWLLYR
Nature of the data set: ELISA; competitive: BTLA-Fc coated at 400 ng/well; peptides in 1% milk/PBS-T 2 h at 37°C; washed; HVEM-Fc 400 ng/well 1 h at 37°C; detected with biotinylated anti-HVEM 11.8 and streptavidin-HRP; percent inhibition relative to anti-BTLA 7.1 mAb (100%) and buffer (0%). Particulars: both partners purified. (In general: In an ELISA, binding on a coated surface is turned into a signal by an enzyme label.)

Positions of bridges follow the written chain, without caps; N, C: chain ends.

In the case of `N[C@@H](CS)C(=O)O` [cysteine, reference compound], the “Blocking of BTLA/HVEM binding in cellular assay (GMFI, in words)” value in data set [1] is reported as “blocked BTLA/HVEM complex formation”. Moreover, in data set [2], the “Inhibition of BTLA/HVEM ligation in ELISA (in words)” value (“Inhibition of BTLA/HVEM ligation” below) is “prevented partially the binding of HVEM”.

For `N[C@@H](CSSC[C@H](N)C(=O)O)C(=O)O` [cystine, reference compound], in data set [2], the “Inhibition of BTLA/HVEM ligation” value is listed as “the inhibitory properties were not observed”.

Turning to `CSCC[C@H](N)C(=O)O` [methionine, reference compound], the “Inhibition of BTLA/HVEM ligation” value in data set [2] is reported as “the inhibitory properties were not observed”.

Consider “Ac-ELCAGPVTRKVECTYGE-NH2 [Scrambled peptide, scrambled control of HVEM(23–39), Ac-…-NH2, reference compound]”, for which the “Presence of free thiol groups” value in data set [3] was “contains free thiol groups”. For the same molecule, the “Interaction with BTLA immobilised in microcolumn (in words)” value (“Interaction with BTLA immobilised” for short) in data set [4] was “did not interact with BTLA immobilized in microcolumn”. Moreover, in data set [2], the “Inhibition of BTLA/HVEM ligation” value is recorded as “has no effect”.

On to “Ac-ELTGTVCEP-NH2 [HVEM(31–39), 9 amino acid-long HVEM fragment 31–39]”, for which the “Elution [M+H]+1 (peptide signal in elution fraction = complex with BTLA formed; - = no signal)” value in data set [4] is listed as 989.3. In addition, in data set [2], the “Inhibition of BTLA/HVEM ligation” value was “showed a lower percentage of inhibition than the HVEM(23–39)”.

Turning to “Ac-ELTGTVS^37EP-NH2 [HVEM(31–39) C37S, HVEM(31–39) analog with Cys37 replaced by serine]”, the “Inhibition of BTLA/HVEM ligation” value in data set [2] is reported as “no blocking capacity”.

“Ac-YRVKEACGELTGTVCEP-NH2 (disulfide 7-15 (inferred); SMILES CC(=O)N[C@@H](Cc1ccc(O)cc1)C(=O)N[C@@H](CCCNC(=N)N)C(=O)N[C@H](C(=O)N[C@@H](CCCCN)C(=O)N[C@@H](CCC(=O)O)C(=O)N[C@@H](C)C(=O)N[C@H]1CSSC[C@@H](C(=O)N[C@@H](CCC(=O)O)C(=O)N2CCC[C@H]2C(N)=O)NC(=O)[C@H](C(C)C)NC(=O)[C@H]([C@@H](C)O)NC(=O)CNC(=O)[C@H]([C@@H](C)O)NC(=O)[C@H](CC(C)C)NC(=O)[C@H](CCC(=O)O)NC(=O)CNC1=O)C(C)C) [HVEM(23–39) (C29-C37), cyclic HVEM(23–39) with disulfide bridge, oxidized cysteines]”: in data set [4], the “Elution [M+H]+1 (peptide signal in elution fraction = complex with BTLA formed; - = no signal)” value is reported as 1893.9 and the “Interaction with BTLA immobilised” value was “interacted with BTLA in affinity test”. In addition, the “Inhibition of BTLA/HVEM ligation” value in data set [2] is given as “no blocking of BTLA/HVEM interaction was observed”.

On to “Ac-YRVKEACGELTGTVCEP-NH2 [HVEM(23–39), HVEM fragment 23–39, Ac-…-NH2, free sulfhydryl groups]”, for which the “Presence of free thiol groups” value in data set [3] is “observed free thiol groups”. Also, the “Concentration of free thiol groups after 2 hours of incubation, peptide alone” value in data set [3] (Ellman's assay, pH 7.4, peptide alone, 2 hours, suggests a fraction of the peptide is oxidized) was “lower”. The “Concentration of free thiol groups over time, peptide incubated with BTLA-Fc” value in data set [3] (Ellman's assay, pH 7.4, peptide mixed with recombinant BTLA-Fc (ratio 1:1)) is on record as “decrease in the concentration of free thiol groups over time, which was more pronounced than in the condition where the peptide was alone”. For the same molecule, the “Blocking of BTLA/HVEM binding in cellular assay (GMFI, in words)” value in data set [1] is “almost no blocking of the BTLA/HVEM binding was observed”. The “Interaction with BTLA immobilised” value in data set [4] is “complex between BTLA and HVEM(23–39) was formed”. Besides, the “Inhibition of BTLA/HVEM ligation” value in data set [2] is “can partially prevent the ligation of HVEM to BTLA, in a dose dependent manner”.

Consider “Ac-YRVKEAS^29GELTGTVCEP-NH2 [HVEM(23–39) C29S, HVEM(23–39) analog with Cys29 replaced by serine]”, for which the “Elution [M+H]+1 (peptide signal in elution fraction = complex with BTLA formed; - = no signal)” value in data set [4] came to 1879.7.

As to “Ac-YRVKEAY^29GELTGTVCEP-NH2 [HVEM(23–39) C29Y, HVEM(23–39) analog with Cys29 replaced by tyrosine]”, the “Elution [M+H]+1 (peptide signal in elution fraction = complex with BTLA formed; - = no signal)” value in data set [4] is 1955.7.

For “C29A: single alanine-substituted HVEM(23–39) variant, cysteine 29 replaced by alanine (Ac-YRVKEAAGELTGTVCEP-NH2)”, the “Inhibition of BTLA/HVEM ligation” value in data set [2] is “significant reduction of the inhibition”.

Turning to “C37A: single alanine-substituted HVEM(23–39) variant, cysteine 37 replaced by alanine (Ac-YRVKEACGELTGTVAEP-NH2)”, in data set [2], the “Inhibition of BTLA/HVEM ligation” value is given as “significant reduction of the inhibition”.

B1: HVEM(31–39) (peptide)
peptide: Ac-ELTGTVCEP-NH2
notes: herpes virus entry mediator (HVEM), human, residues 31-39; also called HVEM (31–39) fragment; source: synthetic peptide (SPPS, RP-HPLC purified)
With B1, the binding result in data set [5] was “binds”.

B2: HVEM(23–39) peptide (peptide)
peptide: YRVKEACGELTGTVCEP
modifications: not fully specified; N-terminal acetyl (Ac-); C-terminal amide (-NH2)
notes: herpes virus entry mediator (HVEM), human, residues 23-39 of the CRD1 domain; Linear, with two free sulfhydryl groups; also called HVEM(23–39) fragment; wild-type peptide HVEM(23–39); source: synthetic peptide (SPPS, RP-HPLC purified)
For the molecule B2, the binding result in data set [5] is given as “binds”.
